Reference: patent US7945392B2, “Methods and systems for drug screening and computational modeling based on biologically realistic neurons” (McLean Hospital Corporation, priority 2005, dated 2011)

Columns and labels:
D1 receptor = D1 receptor (Homo sapiens, UniProt P21728); experiment: Fraction of receptors occupied, calculated from drug concentration and Ki; conditions: at a therapeutic olanzapine level
Text: In particular, affinities of many drugs for receptors are well known. For example, Goodman and Gilmans “The Pharmacological Basis of Therapeutics,” Tenth Edition.

[1] = highly selective antagonist at the D4 receptor; cited from earlier work

Chain of D1 receptor (P21728 whole entry): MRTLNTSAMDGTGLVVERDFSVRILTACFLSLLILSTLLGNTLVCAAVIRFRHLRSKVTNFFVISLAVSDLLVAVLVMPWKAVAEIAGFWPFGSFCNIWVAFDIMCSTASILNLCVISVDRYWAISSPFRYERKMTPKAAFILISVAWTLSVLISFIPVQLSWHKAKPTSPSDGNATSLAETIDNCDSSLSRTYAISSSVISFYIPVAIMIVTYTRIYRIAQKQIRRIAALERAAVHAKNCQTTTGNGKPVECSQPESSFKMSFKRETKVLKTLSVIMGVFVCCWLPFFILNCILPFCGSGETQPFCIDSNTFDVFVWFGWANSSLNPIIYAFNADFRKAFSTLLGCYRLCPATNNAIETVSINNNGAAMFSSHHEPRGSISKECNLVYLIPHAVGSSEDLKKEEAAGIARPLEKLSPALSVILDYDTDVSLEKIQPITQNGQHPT

Row | SMILES | D1 receptors blocked (antagonized) (D1 receptor) | antipsychotic effectiveness [1]
1 | Cc1cc2c(s1)Nc1ccccc1N=C2N1CCN(C)CC1 [olanzapine] | approximately 47% | –
2 | Clc1ccc(N2CCN(Cc3c[nH]c4ncccc34)CC2)cc1 [L-745870] | – | ineffective
